Measurements reported in paper PMC4113814, “Bioactive Cembrane Derivatives from the Indian Ocean Soft Coral, Sinularia kavarattiensis” (Marine Drugs, 2014).
In brackets after ≈: the same amount, converted by molar mass. Like-named read-outs stand apart in the source and are kept apart here.

Assays:
CHIKV replicon [1] = test: CHIKV replicon assay, Cell-IQ live cell imaging, EGFP fluorescence intensity; details: 50 and 100 μM, 48 h
BHK-CHIKV-NCT cells [2] = test: Cytotoxicity assay by ATP quantitation (CellTiter GLO); details: 100 μM, cell concentration lowered to 3000 cells/well
[3] = MTT cytotoxicity assay on primary microglial cell cultures; format: cell-based, Wistar rats; details: Wistar, rat, mean of triplicate
Method: (§1) Primary microglial cell cultures were prepared from brains of newborn Wistar rats. Ethics approval for the experiments was granted by the EBIOTEC Review Board (Valter Lombardi, Iván Carrera and Lucía Fernández-Novoa; Project Identification Code: Sinularia Project October 2013; approved 30 October 2013). The neocortex of one-day-old postnatal rats was aseptically dissected out, and the meninges and blood vessels were carefully removed. Following cutting in a medium containing 20% horse serum, the suspension was filtered through a […] and transferred as a single cell suspension to culture dishes, using 5.0 mL of medium per dish. The cultures were incubated at 37 °C in an atmosphere containing 5% CO2. The culture medium consisted of Minimum Essential Medium Eagle, supplemented with L-glutamine, amino acids, vitamins, penicillin, gentamicin, sodium bicarbonate and 20% heat-inactivated horse serum. The medium was changed twice a week. After 1 week, the concentration of horse serum was reduced to 10%. After sixteen days in culture, cells were treated with 1 μg/mL of lipopolysaccharide (LPS). After six hours, different concentrations (1.0 μg/mL, 2.5 μg/mL and 5.0 μg/mL) of Compounds 1–4 and 6 were added to each well, and plates were incubated for 72 h at 37 °C in an atmosphere containing 5% CO2. Positive controls were treated only with LPS, while negative controls were treated with complete medium. After 72 h of incubation, cells were counted, and 2.5 mL of the supernatants were collected from each well and frozen at −40 °C for cytokine analyses. All experiments were carried out twice.
(§2) The cytotoxicity of the compounds was measured by the colorimetric methyl thiazol tetrazolium (MTT) assay and scored as a percentage of the absorbance reduction of treated cultures versus untreated control cultures. Primary microglial cell cultures were seeded into 96-well microplates at 10^4 cells per well and allowed to grow for 24 h. The initial concentration of Compounds 1–4 and 6 was 100 μg/mL in DMSO. The compounds were serially diluted in complete culture medium with two-fold dilutions (100, 50, 25, 12.5, 6.25, 3.12 and 1.56 μg/mL for in vitro cytotoxicity; 12.5, 6.25, 3.12, 1.56, 0.78 and 0.39 μg/mL for cytokine release). Different concentrations of the compounds were added to each well, and Tamoxifen was used as a positive control, with concentrations ranging from 50 to 1.56 μg/mL. Plates were incubated at 37 °C for 72 h under 5% CO2 atmosphere. Then, the 50 μL of MTT-PBS solution in culture medium were added to each well. The plates were further incubated for 4 h under the same conditions. The medium was then removed and replaced with 200 μL of DMSO to solubilize the MTT formazan product. The solutions were shaken for 20 min, and the absorbance was measured at 570 nm. […] Each value represents the mean of triplicate determinations. The IC50 values were calculated from the compound concentration-response curves.

CHIKV replicon [4] = details: summary statement
BHK-CHIKV-NCT cells [5] = test: Cell-IQ live cell imaging, cytotoxicity by cell classification (viable cells); details: 100 μM, 48 h, 3000 cells/well
IL-6 = IL-6 release in supernatants of LPS-treated primary microglial cells (ELISA); format: cell-based, Wistar rats; details: 72 h; for IL-6 release: LPS-treated; for IC50: Rattus norvegicus, inhibition of LPS-induced cytokine release, read-out: IL-6 IC50
Method: as §1, with “After six hours, different concentrations (1.0 μg/mL, 2.5 μg/mL and 5.0 μg/mL) of Compounds 1–4 and 6 were added to each well, and plates were incubated for 72 h at 37 °C in an atmosphere containing 5% CO2.” left out
(§3) The supernatants obtained from cell cultures were analyzed for TNF-α, IL-1β, IL-4, IL-6, IL-8, IL-10 and IL-18 using commercially available ELISA kits following the manufacturers’ instructions. All samples were assayed in duplicate, and equivocal results were repeated. The cytokine concentration was calculated from a standard curve of the corresponding recombinant cytokine.
as §2, with “The initial concentration of Compounds 1–4 and 6 was 100 μg/mL in DMSO.” left out

TNF-α = TNF-α release in supernatants of LPS-treated primary microglial cells (ELISA); format: cell-based, Wistar rats; details: 72 h; for TNF-α release: LPS-treated; for IC50: Rattus norvegicus, inhibition of LPS-induced cytokine release, read-out: TNF-α IC50
Method: as §1, with “After six hours, different concentrations (1.0 μg/mL, 2.5 μg/mL and 5.0 μg/mL) of Compounds 1–4 and 6 were added to each well, and plates were incubated for 72 h at 37 °C in an atmosphere containing 5% CO2.” left out
as §3
as §2, with “The initial concentration of Compounds 1–4 and 6 was 100 μg/mL in DMSO.” left out

cytokine release = test: Inhibition of cytokine release in primary microglial cells, whole cytokine panel (summary statements); format: cell-based, Wistar rats; details: Rattus norvegicus
Method: Primary microglial cell cultures were prepared from brains of newborn Wistar rats. Ethics approval for the experiments was granted by the EBIOTEC Review Board (Valter Lombardi, Iván Carrera and Lucía Fernández-Novoa; Project Identification Code: Sinularia Project October 2013; approved 30 October 2013). The neocortex of one-day-old postnatal rats was aseptically dissected out, and the meninges and blood vessels were carefully removed. Following cutting in a medium containing 20% horse serum, the suspension was filtered through a […] and transferred as a single cell suspension to culture dishes, using 5.0 mL of medium per dish. […] After 72 h of incubation, cells were counted, and 2.5 mL of the supernatants were collected from each well and frozen at −40 °C for cytokine analyses. […]
as §3, with “All samples were assayed in duplicate, and equivocal results were repeated.” left out
The cytotoxicity of the compounds was measured by the colorimetric methyl thiazol tetrazolium (MTT) assay and scored as a percentage of the absorbance reduction of treated cultures versus untreated control cultures. […] The solutions were shaken for 20 min, and the absorbance was measured at 570 nm. […]

Structure (SMILES)	decrease in EGFP marker fluorescence intensity (CHIKV replicon [1])	reduction of ATP level (BHK-CHIKV-NCT cells [2])	IC50 at 72 h [3]	overall activity in the CHIKV replicon model (CHIKV replicon [4])	decrease in the amount of viable cells (living or dividing) (BHK-CHIKV-NCT cells [5])	IL-6 release (IL-6; C1: 1.0 μg/mL)	IL-6 release (IL-6; C2: 2.5 μg/mL)	IL-6 release (IL-6; C3: 5.0 μg/mL)	IC50 (IL-6)	TNF-α release (TNF-α; C1: 1.0 μg/mL)	TNF-α release (TNF-α; C2: 2.5 μg/mL)	TNF-α release (TNF-α; C3: 5.0 μg/mL)	IC50 (TNF-α)	IC50 (cytokine release; converted from μg/mL, range over all cytokines)	IC50 (cytokine release; range over IL-1β, IL-6, IL-8, IL-18, TNF-α, IL-4, IL-10, read-out: IC50-values for the inhibition of cytokine release, range over cytokines)
C=C(C)[C@@H]1C/C=C2\C(=O)O[C@@H](C[C@]3(C)CC(=O)[C@H](CC(=O)C1)O3)[C@@H]2O [Compound 1, 5-epi-sinuleptolide]	strongest decrease	39%	> 100 µg/mL	moderate inhibition	> 80%	14.2 ± 1.8 pg/mL	11.7 ± 1.2 pg/mL	13.5 ± 1.4 pg/mL	> 12.5 µg/mL	33.5 ± 11.2 pg/mL	31.2 ± 9.2 pg/mL	33.6 ± 11.1 pg/mL	> 12.5 µg/mL		
C=C(C)[C@@H]1C/C=C2\C(=O)O[C@@H](C[C@]3(C)CC(=O)[C@@H](CC(=O)C1)O3)[C@@H]2O [Compound 2, sinuleptolide]	strongest decrease	44%	> 100 µg/mL	moderate inhibition	> 80%	12.1 ± 0.9 pg/mL	7.8 ± 1.4 pg/mL	8.5 ± 1.3 pg/mL	2.2 µg/mL (≈ 6.31 µM)	34.1 ± 9.1 pg/mL	12.3 ± 3.4 pg/mL	9.8 ± 3.3 pg/mL	1.7 µg/mL (≈ 4.88 µM)	1.4 to 8.3 µM	0.5 to 2.9 µg/mL
C=C(C)C1CCC23OC2C(CC2(C)CC(=O)C(CC(=O)C1)O2)OC3=O (stereo not drawn) [Compound 3, scabrolide D]	inactive		> 100 µg/mL			12.9 ± 1.1 pg/mL	11.5 ± 1.3 pg/mL	13.2 ± 1.2 pg/mL	> 12.5 µg/mL	33.6 ± 11.2 pg/mL	24.5 ± 6.9 pg/mL	35.4 ± 12.4 pg/mL	> 12.5 µg/mL		
C=C(C)[C@@H]1CC(=O)[C@H]2[C@H](C1)[C@@H]1C(=O)O[C@@H]3C[C@@]4(C)O[C@H]2C(=O)[C@@H]4[C@H]13 [Compound 6, ineleganolide]	only moderate decreases		> 100 µg/mL			13.2 ± 0.2 pg/mL	12.1 ± 0.9 pg/mL	11.8 ± 1.2 pg/mL	> 12.5 µg/mL	31.2 ± 2.9 pg/mL	30.6 ± 2.6 pg/mL	32.3 ± 3.2 pg/mL	> 12.5 µg/mL		
